Experimental data from publication PMC8273887 (Journal of Medicinal Chemistry, 2021).
Entries after “also recorded” stand apart in the source; their conditions may differ. Blank lines part the entries; values can stand above or below the substance they belong to. Bridge positions count the residues as written; N and C are the ends. Ends that are not written are not given here.

What was measured:
[1] = Stability in simulated intestinal fluid (SIF); type: in vitro ADME; conditions: pig, simulated intestinal fluid (SIF) with porcine pancreatin, pH 6.8, 15 μL of 1 mM peptide stock in 285 μL SIF, 37 °C, samples 0 min-24 h quenched with 5% aqueous TFA, RP-HPLC/LC-MS peak area as % of time 0, exponential one-phase decay fit, read-out: t1/2 in SIF
Description: (§1) We exposed TFF3(C^57Acm) and TFF3 homodimer to simulated gastric fluid (SGF, containing pepsin, pH 1.3) and simulated intestinal fluid (SIF, containing pancreatic enzymes, pH 6.8), and monitored the mixture over 24 h by analytical RP-HPLC and MS. The N- and C-termini of TFF3 and its homodimer were readily truncated in both SGF and SIF (Figure 4A,B). In SGF, TFF3 was cleaved at Leu^6/Ser^7 followed by cleavage at Glu^54/Ala^55 (t1/2 < 5 min). In SIF, TFF3 was cleaved first at Thr^58/Phe^59 followed by cleavage at Leu^6/Ser^7, Glu^56/Cys^57, and Ala^55/Glu^56 (t1/2 < 5 min). TFF3 homodimer, in both SGF (t1/2 ∼ 40 min) and SIF (t1/2 < 5 min), was first broken down to monomeric TFF3 through simultaneous cleavage at Leu^6 and Glu^54 or Ala^55, eventually leading to the same metabolites as TFF3 (Figure 4B).
(§2) Simulated gastric fluid (SGF) was prepared by dissolving 20 mg of NaCl and 8 mg of pepsin in 70 μL of concentrated HCl (32%), and the volume was diluted to 10 mL with Milli-Q water (pH 1.3).[76],[77] Simulated intestinal fluid (SIF) was prepared by dissolving 68 mg of KH2PO4 in 500 μL of Milli-Q water followed by the addition of 800 μL of 0.2 M NaOH and 100 mg of porcine pancreatin, and the volume was adjusted to 10 mL with Milli-Q water (pH 6.8).[76],[77] Peptide stock solution (1 mM; 15 μL) was added to SGF (285 μL) or SIF (285 μL) and incubated at 37 °C. Samples (30 μL) from SGF and SIF were taken at 0, 5, 15, and 30 min and 1, 2, 4, 8, and 24 h timepoints and subsequently quenched with 30 μL of 0.2 M Na2CO3 (SGF) or 30 μL of 5% aqueous TFA (SIF). The samples were analyzed by analytical RP-HPLC (30 μL) and/or LC-MS (20 μL). The amount of peptide remaining was determined by measuring the peak area and expressing it as a % of the peak area at time 0. Peptide half-life (t1/2) was determined from the peptide degradation profiles using an exponential one-phase decay fit in Prism (version 7, GraphPad, La Jolla). LC-MS analysis was performed in a Q-Star Pulsar mass spectrometer (SCIEX, Ontario, Canada), and the raw data spectra were processed using the peptide reconstruction tool in the BioAnalyst software to identify the mass of the metabolites. The stability of the disulfide bonds was assessed through incubation of the peptides (10 μM) with 10 equiv of reduced glutathione (GSH; 100 μM) in sodium phosphate (50 mM) buffer at pH 7.2. Samples were taken at timepoints 0, 4, 8, and 24 h, quenched by adding 10% TFA, and analyzed by analytical RP-HPLC using an analytical C3 column (Agilent Zorbax SB-C3, 5 μm, 2.1 mm × 250 mm, 300 Å).

[2] = Stability in simulated gastric fluid (SGF); type: in vitro ADME, porcine; conditions: SGF with pepsin, pH 1.3, 37 °C, 24 h; RP-HPLC and MS
Description: as §1, §2

[3] = system: trypsin; conditions: incubated with trypsin; fragments identified
From the text: We then synthesized the trefoil domain (TFF3_10-50, single-chain assembly via Fmoc-SPPS) to investigate its gut stability. We acetylated the N-terminus (Gln^10) of the trefoil domain to prevent the formation of pyroglutamic acid.

[4] = system: porcine pancreatin; test: simulated intestinal fluid (SIF, containing pancreatic enzymes, pH 6.8); conditions: 37 °C, up to 24 h
[5] = human saliva; conditions: cited from earlier work
[6] = system: pepsin; test: simulated gastric fluid (SGF, containing pepsin, pH 1.3); conditions: porcine, 37 °C, up to 24 h
[7] = molecular target: T1, CXCR4 (Homo sapiens, UniProt P61073); test: Inositol 1 phosphate (IP1) accumulation assay (HTRF) in COS-7 cells transfected with CXCR4; type: cell-based; conditions: 5 min preincubation with peptide (1 or 10 μM final), then CXCL12 10^-12 to 10^-5 M; COS-7/CXCR4; IP1 HTRF
T1 construct: expressed in transfected cells; host or cells: COS-7 (African green monkey), transient co-transfection with GαΔ6qi4myr
T1 sequence (P61073 whole entry): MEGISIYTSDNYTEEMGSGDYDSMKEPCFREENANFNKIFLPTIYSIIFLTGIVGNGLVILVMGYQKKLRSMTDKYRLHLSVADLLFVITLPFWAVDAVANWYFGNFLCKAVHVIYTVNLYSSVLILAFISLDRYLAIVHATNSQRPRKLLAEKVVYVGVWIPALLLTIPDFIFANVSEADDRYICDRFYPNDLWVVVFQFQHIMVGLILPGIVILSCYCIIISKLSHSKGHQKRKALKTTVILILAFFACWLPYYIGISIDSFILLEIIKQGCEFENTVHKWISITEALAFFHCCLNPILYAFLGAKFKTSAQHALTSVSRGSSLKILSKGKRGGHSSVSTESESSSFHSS
From the text: CXCR4 is a member of the G protein-coupled receptor (GPCR) family[58] and proposed as a target receptor for TFF3 to mediate wound healing.[30],[39] We therefore pharmacologically characterized TFF3(C^57Acm) and TFF3 homodimer at CXCR4. We used a chimeric Gαiq protein to switch the pathway to the Gαq signaling, which leads to the activation of the phospholipase and allows measurement of CXCR4 activation through the production of inositol 1 phosphate (IP1).[61]−[63] We measured IP1 accumulation upon stimulation with TFF3(C^57Acm) and TFF3 homodimer in fibroblast-like COS-7 cells transiently transfected with CXCR4.[58] This is a competitive immunoassay, based on the HTRF technology, where native IP1 produced by cells compete with labeled IP1 (acceptor) for binding to anti-IP1-cryptate (donor). The specific signal (i.e., Förster resonance energy transfer, FRET) is inversely proportional to the concentration of IP1 in the sample. The calculation of the fluorescence ratio eliminates possible medium interferences.[64]
COS-7 cells (fibroblast-like cells from African green monkey) were transiently co-transfected with the CXCR4 C-terminally fused to eYFP in pVitro2 vector and the untagged chimeric G protein GαΔ6qi4myr in pcDNA3.1 plasmid using Metafectene Pro according to manufacturer’s protocol. The cells were cultured in DMEM with higher glucose and supplemented with 10% FCS without any antibiotics at 37 °C and 5% CO2 in 95% humidity. Cisbio IP-One Gq assay kit was used according to previous description with minor modifications to measure activity.[80] Briefly, a standard curve was prepared in HBSS (Hanks’ balanced salt solution) with 20 mM LiCl to determine the linear range of the assay and 10 000 cells/well were cultured overnight in a 384-well flat white plate (Greiner Bio-one GmbH, Frickenhausen, Germany). TFF3 and its homodimer as well as CXCL12 were diluted in HBSS containing 20 mM LiCl. Stimulation was carried out for 1 h in triplicate at 37 °C. Subsequently, 3 μL of IP1-d2 and 3 μL of Ab-cryptate in lysis buffer were added to the wells and incubated on a tumbler for 60 min at 25 °C. Fluorescence was then measured at 620 and 665 nm and the HTRF (homogeneous time-resolved fluorescence) ratio (665/620 nm) was calculated. Data analysis was performed with Prism (version 7, GraphPad, La Jolla). Tested compounds were normalized to CXCL12 wild type, with the highest HTRF ratio set to 0% and the lowest HTRF ratio set to 100% response. […] The final concentration range of 10^–12 to 10^–5 M to CXCL12 and 1 or 10 μM to TFF3(C^57Acm) and TFF3 homodimer was achieved by adding the compounds from a threefold concentrated stock solution.

[8] = Stability of disulfide bonds with reduced glutathione (GSH); type: physicochemical; conditions: peptide 10 μM, 10 equiv reduced glutathione (100 μM), 50 mM sodium phosphate buffer pH 7.2; timepoints 0, 4, 8, 24 h; analytical C3 RP-HPLC
From the text: In certain physiological environments, disulfide bonds are prone to scrambling or reductive cleavage, thereby affecting peptide integrity.[67] Thus, we also evaluated the stability of the disulfide bonds of TFF3 in the presence of 10 equivalents of reduced glutathione (GSH) at pH 7 by time-course analytical RP-HPLC. […] While this was expected for the relatively buried disulfide bonds within the trefoil domain (TFF3_10-50), it highlights that also the disulfide bond outside of the trefoil domain is well protected.
Simulated gastric fluid (SGF) was prepared by dissolving 20 mg of NaCl and 8 mg of pepsin in 70 μL of concentrated HCl (32%), and the volume was diluted to 10 mL with Milli-Q water (pH 1.3).[76],[77] […] The samples were analyzed by analytical RP-HPLC (30 μL) and/or LC-MS (20 μL). The amount of peptide remaining was determined by measuring the peak area and expressing it as a % of the peak area at time 0. Peptide half-life (t1/2) was determined from the peptide degradation profiles using an exponential one-phase decay fit in Prism (version 7, GraphPad, La Jolla). […] The stability of the disulfide bonds was assessed through incubation of the peptides (10 μM) with 10 equiv of reduced glutathione (GSH; 100 μM) in sodium phosphate (50 mM) buffer at pH 7.2. […]

Substance: Ac-QCAVPAKDRVDCGYPHVTPKECNNRGCCFDSRIPGVPWCFK-NH2 (disulfide 2-28, 12-27, 22-39) [TFF3_10-50]
half-life at 50 μM [1]: < 30 min
stability in SGF over 24 h (in words) [2]: stable
cleavage sites on incubation with trypsin [3]: cleavages at Lys^16, Arg^18, and Arg^41

cleaved bond [4]: Leu6-Ser7, first_seen
Substance: EEYVGLSANQCAVPAKDRVDCGYPHVTPKECNNRGCCFDSRIPGVPWCFKPLQEAECTF
fragment found [4]: S^7ANQCAVPAKDRVDCGYPHVTPKECNNRGCCFDSRIPGVPWCFKPLQEAE^56
cleaved bond [5]: Thr58-Phe59
cleaved bond [6]: Leu6-Ser7, first_seen; also recorded: Glu54-Ala55, first_seen; also recorded: Ala55-Glu56, first_seen

effect on the EC50 of CXCL12 at CXCR4 (antagonism) [7]: not affected
Substance: TFF3: 59-residue trefoil factor 3 peptide, three intrachain disulfide bonds, free Cys^57; chemically synthesized by native chemical ligation (EEYVGLSANQCAVPAKDRVDCGYPHVTPKECNNRGCCFDSRIPGVPWCFKPLQEAECTF; disulfide 11-37, 21-36, 31-48)
disulfide bond reduction or scrambling in presence of GSH [8]: No disulfide bond reduction or scrambling was observed
